Legend:
[1] = system: luciferase reporter gene in C2C12 cells; test: Transient transfection luciferase reporter assay of myostatin promoter fragments; type: cell-based, murine; details: normalized against Renilla luciferase activity
Method: C2C12 are murine muscle cell lines (ATCC #CRL-1772). These cells were maintained in standard culture media at 37° C.
The 1.8 kb and 2.5 kb myostatin promoter fragments and additional subclones of 320 bp and 901 bp proximal to the myostatin protein coding region were placed into the multicloning site of the pGL3 basic vector (Promega) 5′ to the coding sequence for luciferase. In this vector, the luciferase gene lacks a promoter, and, consequently, is under the control of any promoter cloned upstream of it. These plasmid vectors were used to transiently transfect C2C12 cells, using Fugene (Boehringer Mannheim) as a carrier to introduce the plasmid into the cells. The cell cultures were grown at 37° C., 5% CO2, in DMEM, and luciferase activity was measured using a commercial kit (Promega Luciferase Assay System, E150).
The ability of the various fragments of the murine myostatin promoter region to control expression of the luciferase reporter gene in transient transfection assays is shown in FIG. 2. In each experiment, C2C12 cells were co-transfected with a second vector that employs a CMV promotor to express constitutively a Renilla luciferase gene (pRL-CMV, Promega). Values presented for the myostatin promoter constructs were all normalized against Renilla luciferase activity.

C2C12 muscle cells = test: Expression of porcine GHRH from a myostatin promoter vector transiently transfected into C2C12 muscle cells; type: cell-based, murine; details: transient transfection, compared with a CMV promoter
Text: Direct injection into muscle of DNA plasmids with muscle specific or constitutive promoters results in expression of the gene under control of that promoter. A vector utilizing the murine 2.5 kb myostatin promoter to drive expression of porcine growth hormone releasing hormone (GHRH) was constructed. […] In accordance with the present invention, the construct may be directly introduced into a host by direct injection of naked DNA.

## 2.5 kb fragment: 2482 bp DNA fragment immediately 5' to the murine myostatin gene, the murine myostatin promoter (SEQ ID NO: 1)
[1]
  transcriptional activity (luciferase reporter expression), in words: strongest promoter of those tested
C2C12 muscle cells
  expression of GHRH detected in culture supernatants: levels similar to those found using a CMV promoter

From patent US6617440B1, “Myostatin regulatory region, nucleotide sequence determination and methods for its use” (Pfizer, Inc., priority 1999, dated 2003)
